This note sets out measurements from PubChem BioAssay (NCI).

Common to all, as to assay: NCI tumour cell line growth inhibition, 48 h
For test [1], the system named is TK-10 renal.
The test system of test [2] is 786-0 renal.
Test [3] concerns NCI-H226 lung.
Test [4] has as its system MDA-MB-231 breast.
For test [5], the system named is HCT-116 colon.
Test [6] relates to SNB-75 CNS.
Test [7] deals with SK-OV-3 ovarian.
The subject of test [8] is MDA-MB-435.
The subject of test [9] is K-562 leukemia.
Test [10] concerns MCF7 breast.

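Following 48 hours of exposure in 96-well plates, responses at five concentrations were used to interpolate endpoints linearly. GI50 marks 50% less growth. At the TGI there is no net growth.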 A value given as a limit tells only on which side of the number the result lay.

Take `CC(=O)c1c(C(F)(F)F)n([O-])c2ccc(C)cc2[n+]1=O`: the GI50 in [1] was 5.07 µM; in test [2], 1.47 µM; in test [3], 1.71 µM; in [4], 1.82 µM; in [5] it was 3.89 µM; in [6], 3.28 µM. For the same compound, the GI50 is 5.02 µM in test [7], 6.99 µM in test [8], 1.1 µM in [9] and 4 µM in [10]. Also, the TGI in [1] was above 50.5 µM; in [2], 4.7 µM; in test [3] it was 6.85 µM; in test [4] it was 5.52 µM; in [5], above 41.1 µM; in [6], 18.1 µM. Moreover, the TGI in test [7] is above 100 µM; in test [8] it was 35.9 µM; in test [9], 21.4 µM; in test [10], above 100 µM.

With `Cn1cc(-c2nonc2-c2cn(C)c3ccccc23)c2ccccc21`, the GI50 was 6.23 µM in [1]; 1.63 µM in test [2]; 3.25 µM in test [3]; 1.35 µM in test [4]; 0.61 µM in test [5]; 0.176 µM in [6]. The GI50 in test [7] was 1.28 µM; in test [8], 0.228 µM; in test [9], 0.342 µM; in test [10] it was 0.591 µM. For the same compound, the TGI in test [1] was above 100 µM; in [2] it was above 100 µM; in test [3], above 100 µM; in [4], above 100 µM; in [5], above 100 µM; in [6], 0.842 µM. For the same compound, the TGI in [7] is above 100 µM; in test [8], 0.635 µM; in test [9], above 100 µM; in test [10] it was above 100 µM.

On to `COc1ccc(-c2cc(=O)c3c(OC)c(OC)c(OC)c(OC)c3o2)cc1`, for which the TGI in test [1], in test [2], in test [3], in test [4], in [5] and in test [6] was above 100 µM in each case. Also, the TGI in [7], in test [8], in [9] and in test [10] was above 100 µM throughout.

In the case of `Cc1cccc(NC(=O)c2sc3nc4c(cc3c2N)CN(Cc2ccccc2)CC4)c1C`, the GI50 in test [1] was 5.36 µM; in test [2] it was 0.197 µM; in test [3], 1.64 µM; in test [4], 0.432 µM; in test [5], 0.227 µM; in test [6] it was 0.112 µM. Further, the GI50 in test [7] was 0.216 µM; in test [8], 0.065 µM; in [9] it was 0.104 µM; in test [10] it was 0.151 µM. Besides, the TGI is above 50 µM in test [1]; 28.5 µM in test [2]; above 50 µM in test [3]; above 50 µM in [4]; above 50 µM in test [5]; 0.419 µM in test [6]. In addition, the TGI in test [7] was above 50 µM; in test [8], 0.181 µM; in [9], above 50 µM; in test [10] it was above 50 µM.

With `COc1ccc2cc(-c3c(-c4ccncc4)nc(-c4ccc(S(C)=O)cc4)n3C)ccc2c1` (stereo not drawn), the GI50 in test [1] was above 21.8 µM; in test [2] it was 16.7 µM; in test [3], above 9.95 µM; in test [4] it was above 25 µM; in test [5] it was 19.1 µM; in test [6], above 12.8 µM. The GI50 in test [7] is 10.7 µM; in test [8], 14.6 µM; in [9], 15.6 µM; in test [10] it was above 19.6 µM. The TGI in test [1], in test [2], in test [3], in [4], in [5] and in test [6] was above 25 µM each time. Besides, the TGI in [7], in test [8], in test [9] and in test [10] was above 25 µM in each case.

Regarding `COc1cc(/C=C/[N+](=O)[O-])cc(Br)c1OC`, the GI50 in test [1] is 3.52 µM; in test [2], 1.95 µM; in test [3], 16.7 µM; in test [4], 3.03 µM; in test [5] it was 1.78 µM; in test [6], 1.85 µM. Also, the GI50 in test [7] was 13.4 µM; in [8], 2.33 µM; in [9] it was 2.21 µM; in [10], 1.93 µM. The TGI in test [1] was 11.5 µM; in test [2] it was 3.54 µM; in [3] it was 52.8 µM; in test [4], 8.05 µM; in test [5], 3.22 µM; in test [6], 5 µM. Moreover, the TGI in test [7] is 26.5 µM; in [8], 6.15 µM; in [9], above 100 µM; in [10], 7.43 µM.

With `CCn1c2ccccc2c2cc(/C=C(/C#N)C(N)=O)ccc21`, the GI50 is 2.31 µM in test [1]; 10.6 µM in test [2]; 0.209 µM in test [3]; 21 µM in [4]; 3.71 µM in test [5]; 16.1 µM in [6]. For the same compound, the GI50 is 21.8 µM in test [7], 2.53 µM in test [8], 4.49 µM in test [9] and 0.857 µM in test [10]. The TGI in test [1] was above 28.8 µM; in test [2] it was above 100 µM; in [3], 1.13 µM; in test [4], above 100 µM; in test [5] it was above 52.4 µM; in [6] it was 44.1 µM. Moreover, the TGI was above 78.1 µM in [7], 18.4 µM in test [8], above 100 µM in test [9] and above 47.3 µM in test [10].

Regarding `O=[N+]([O-])c1cc(S(=O)(=O)Oc2ccccc2)ccc1Cl`, the GI50 in test [1] is 12.5 µM; in [2], 4.65 µM; in [3], 7.71 µM; in [4] it was 3.89 µM; in test [5], 1.85 µM; in test [6] it was 2.54 µM. Besides, the GI50 in test [7] was 6.21 µM; in test [8], 1.64 µM; in test [9] it was 0.432 µM; in [10], 2.06 µM. Moreover, the TGI was determined as 25.1 µM in [1]; 15.5 µM in test [2]; 21.1 µM in test [3]; 16.2 µM in test [4]; 3.43 µM in test [5]; 6.5 µM in test [6]. Further, the TGI is 18.8 µM in [7], 3.09 µM in test [8], above 100 µM in test [9] and 4.31 µM in [10].

Consider `COc1ccc2c(c1)OC1=C(C(=O)OC1)C2c1cc(OC)c2c(c1)OCO2` (stereo not drawn), for which the GI50 in [1] is 0.268 µM; in [2], 0.0506 µM; in [3] it was 0.0489 µM; in [4], 0.0689 µM; in test [5] it was 0.0366 µM; in test [6], 0.0297 µM. The GI50 was 0.0336 µM in test [7], below 0.0122 µM in test [8], 0.033 µM in [9] and 0.0342 µM in test [10]. Further, the TGI in test [1] was above 100 µM; in [2] it was above 100 µM; in test [4] it was above 100 µM; in [5], 7.16 µM; in [6] it was above 100 µM; in [8], 0.0371 µM. The TGI in [9] and in test [10] was above 100 µM in each case.
